Source: publication PMC2934701 (The Journal of Biological Chemistry, 2010)
Residue numbers refer to the chain shown, from its start.

Legend:
[1] = target: T1, hTAS2R16 (ssr3-hTAS2R16) (Homo sapiens, UniProt Q9NYV7); experiment: Fluo-4 calcium assay, HEK293T + Galpha16gust44; type: cell-based
T1 sequence (Q9NYV7 1-291): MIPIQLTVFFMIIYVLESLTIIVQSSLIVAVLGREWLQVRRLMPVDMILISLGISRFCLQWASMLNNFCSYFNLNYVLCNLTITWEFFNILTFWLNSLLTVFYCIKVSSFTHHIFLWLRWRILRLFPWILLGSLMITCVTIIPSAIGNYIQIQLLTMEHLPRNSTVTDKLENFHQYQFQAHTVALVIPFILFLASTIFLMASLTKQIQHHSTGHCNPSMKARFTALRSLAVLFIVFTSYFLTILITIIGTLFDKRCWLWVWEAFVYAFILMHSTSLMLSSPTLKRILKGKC

[2] = target: T2, hTAS2R16 (ssr3-hTAS2R16) (Homo sapiens, UniProt Q9NYV7, E86D); experiment: Fluo-4 calcium assay, HEK293T + Galpha16gust44; type: cell-based
T2 sequence (Q9NYV7 1-291 E86D): T1 sequence (Q9NYV7 1-291) with E86D

EC50 [1]: 1.34 mM
EC50 [2]: 10.6 mM
SMILES: OC[C@H]1O[C@@H](Oc2ccc(O)cc2)[C@H](O)[C@@H](O)[C@@H]1O [arbutin]
